Experiment [1] deals with T1, MAP4K1 (HPK1) (Homo sapiens, UniProt Q92918).
T1 construct: purchased Invitrogen
Put plainly: Inhibition of MAP4K1 biochemical enzymatic activity (EZReader 2 electrophoretic mobility shift assay). The conditions noted are these: HPK1 (Invitrogen), S6K2tide 1.5 μM, 120 min; ATP 26 μM or 1000 μM (not stated which). In short, it runs like this: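 Mobility-shift assay: 0.1-15 nM enzyme, 1.5 μM fluorescent peptide, 20-1000 μM ATP (apparent Km or 1 mM) in HEPES pH 7.5, MgCl2, DTT, Brij 35; 60-180 min at 25° C, 1% DMSO. Ten-point 4-fold compound series in duplicate; EDTA-stopped, product/substrate peak ratio read.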

Experiment [2] has as its system Primary T Cell. Put plainly: T cell enhancement of cytokines: IL2 measurement (HTRF) in expanded CD3+ T cells stimulated with anti-CD3/anti-CD28. In kind it is cell-based, human. As to conditions: Homo sapiens, T-cell, 24 h, plate-bound anti-CD3 and soluble anti-CD28, 24 h, read-out: IL-2 Primary T Cell EC50. As for the experimental part:
T cells are isolated from whole blood of healthy donors by immunomagnetic negative selection following manufacture's protocol (StemCell Technologies, human T cell isolation kit). Purity of isolated cells is assessed by flow cytometry and yields 95-98% CD3^+ T cells. For expansion of T cells, 1×10^6 cells/well are plated in serum free cell expansion media (ThermoFisher) containing 30U of recombinant human IL2 (R&D) and stimulated with 25 ul of CD3/CD28 beads (Invitrogen) in 24 well plates for 3-4 days. T cells are then expanded in 175 cm flasks and maintained at a cell density of 1 to 2.5×10^6 cells/ml days by addition of ⅔ of fresh media every 2-3 days. After 10-14 days, cells are frozen in BamBanker freezing media (Thermo) and stored in liquid nitrogen.
For IL2 measurement, expanded CD3+ T cells are dispensed at 100K cells/well (cultured in X-VIVO 10 Serum-free media) and are stimulated with plate-bound anti-CD3 and soluble anti-CD28 in the presence of vehicle or compound of the disclosure at various concentrations for 24 h. As outlined in the manufacturer's protocol (Cisbio), 16 μL of conditioned media is transferred to a white 384-well low volume plate. Following a 24 h incubation with the anti-IL2 antibodies, the homogenous time resolved fluorescence (HTRF) is measured.

pEC50, pIC50: −log10 of the molar value.

T1 sequence (Q92918 whole entry): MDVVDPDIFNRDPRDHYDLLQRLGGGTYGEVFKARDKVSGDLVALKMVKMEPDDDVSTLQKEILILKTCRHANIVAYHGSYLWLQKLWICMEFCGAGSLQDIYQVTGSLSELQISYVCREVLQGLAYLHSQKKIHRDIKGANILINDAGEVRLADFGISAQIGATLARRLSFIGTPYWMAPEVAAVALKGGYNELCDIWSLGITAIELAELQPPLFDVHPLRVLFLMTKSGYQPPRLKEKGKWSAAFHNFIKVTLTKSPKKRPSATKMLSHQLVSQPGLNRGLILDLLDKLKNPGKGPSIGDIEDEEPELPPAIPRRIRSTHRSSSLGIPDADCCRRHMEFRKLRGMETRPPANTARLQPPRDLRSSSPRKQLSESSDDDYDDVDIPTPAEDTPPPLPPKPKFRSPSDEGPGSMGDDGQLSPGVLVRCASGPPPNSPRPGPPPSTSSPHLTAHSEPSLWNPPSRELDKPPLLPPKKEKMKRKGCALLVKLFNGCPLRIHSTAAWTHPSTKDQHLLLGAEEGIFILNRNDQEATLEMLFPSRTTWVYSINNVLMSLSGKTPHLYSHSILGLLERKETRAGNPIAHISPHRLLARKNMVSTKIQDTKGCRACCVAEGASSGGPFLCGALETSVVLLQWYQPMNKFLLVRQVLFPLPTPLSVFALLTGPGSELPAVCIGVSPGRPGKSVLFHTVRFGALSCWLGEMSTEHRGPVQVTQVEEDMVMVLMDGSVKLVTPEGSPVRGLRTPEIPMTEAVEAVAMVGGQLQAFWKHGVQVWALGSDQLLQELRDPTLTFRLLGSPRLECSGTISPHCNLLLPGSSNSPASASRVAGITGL

On to `C[C@@H]1OC(=O)c2ccc(Nc3cc4c(C(C)(C)N)cnc(OC5CN(C(=O)[C@@H]6C[C@@H]6F)C5)c4cn3)nc2[C@H]1C` [Compound 10], for which the negative-log IC50 (pIC50) in experiment [1] was 9.89. Also, the pEC50 in experiment [2] was 8.09.
On to `C[C@@H]1OC(=O)c2ccc(Nc3cc4c(C(C)(C)N)cnc(OC5CN(C(=O)[C@@H]6CCCO6)C5)c4cn3)nc2[C@H]1C` [Compound 76], for which the pIC50 in experiment [1] was 9.77. Besides, in experiment [2], the pEC50 was 7.33.
As for `C[C@@H]1c2nc(Nc3cc4c(C(C)(C)N)cnc(OC5CN(C(=O)C6CC6)C5)c4cn3)ccc2C(=O)OC1(C)C` [Compound 8], the pIC50 in experiment [1] was 9.80. For the same compound, the negative logarithm of the EC50 (pEC50) in experiment [2] was 7.49.
On the same counts, the results for `CC(=O)N1C[C@@H](Oc2ncc(C(C)(C)N)c3cc(Nc4ccc5c(n4)[C@@H](C)[C@H](C)OC5=O)ncc23)[C@@H]1C` [Compound 3] are 9.48 and 7.47.
Turning to `C[C@@H]1OC(=O)c2ccc(Nc3cc4c(C(C)(C)N)ccc(OC5CN(C(=O)C6CC6)C5)c4cn3)nc2[C@H]1C` [Compound 29], the pIC50 in experiment [1] is 9.92. For the same compound, the pEC50 in experiment [2] was 7.96.
On the same counts, the results for `C[C@@H]1c2nc(Nc3cc4c(C(C)(C)N)cnc(OC5CN(C(=O)N6CC(F)(F)C6)C5)c4cn3)ccc2C(=O)OC1(C)C` [Compound 101] are 9.89 and 7.75.
The corresponding values for `COC[C@@](C)(N)c1cnc(OC2CN(C(C)=O)C2)c2cnc(Nc3ccc4c(n3)[C@@H](C)C(C)(C)OC4=O)cc12` [Compound 62] are 9.54 and 6.97.
With `CC[C@@H](N)c1cnc(OC2CN(C(=O)[C@@H]3C[C@@H]3F)C2)c2cnc(Nc3ccc4c(n3)[C@@H](C)C(C)(C)OC4=O)cc12` (single isomer, unassigned) [Compound 11, (R)-2-((5-((R)-1-aminopropyl)-8-((1-((1S,2S)-2-fluorocyclopropane-1-carbonyl)azetidin-3-yl)oxy)-2,7-naphthyridin-3-yl)amino)-7,7,8-trimethyl-7,8-dihydro-5H-pyrano[4,3-b]pyridin-5-one or (R)-2-((5-((S)-1-aminopropyl)-8-((1-((1S,2S)-2-fluorocyclopropane-1-carbonyl)azetidin-3-yl)oxy)-2,7-naphthyridin-3-yl)amino)-7,7,8-trimethyl-7,8-dihydro-5H-pyrano[4,3-b]pyridin-5-one], in experiment [1], the pIC50 was 9.20. Further, the negative logarithm of the EC50 (pEC50) in experiment [2] is 7.41.
As for `C[C@@H]1OC(=O)c2ccc(Nc3cc4c(C(C)(C)N)cnc(OC5CN(C(=O)C6(C(F)(F)F)CC6)C5)c4cn3)nc2[C@H]1C` [Compound 102], in experiment [1], the negative-log IC50 (pIC50) is 9.92. In addition, the negative logarithm of the EC50 (pEC50) in experiment [2] is 7.62.
The corresponding values for `C[C@@H]1c2nc(Nc3cc4c(C(C)(C)N)cnc(O[C@@H]5CN(C(=O)C6CC6)[C@H]5C)c4cn3)ccc2C(=O)OC1(C)C` [Compound 65] are 9.70 and 7.76.
As to `CCC(=O)N1CC(Oc2ncc(C(C)(C)N)c3cc(Nc4ccc5c(n4)[C@@H](C)C(C)(C)OC5=O)ncc23)C1` [Compound 6], the negative-log IC50 (pIC50) in experiment [1] was 9.70. Further, the pEC50 in experiment [2] was 7.65.
On the same counts, the results for `C[C@@H]1c2nc(Nc3cc4c(C(C)(C)N)cnc(OC5CN(C(=O)N6CC(F)C6)C5)c4cn3)ccc2C(=O)OC1(C)C` [Compound 95] are 9.66 and 7.70.
On the same counts, the results for `CCCC(C)(N)c1cnc(OC2CN(C(C)=O)C2)c2cnc(Nc3ccc4c(n3)[C@@H](C)[C@H](C)OC4=O)cc12` (single isomer, unassigned) [Compound 113] are 9.96 and 8.13.
With `C[C@@H]1OC(=O)c2ccc(Nc3cc4c(C(C)(C)N)cnc(OC5CN(C(=O)[C@@H]6C[C@@H]6F)[C@H]5C)c4cn3)nc2[C@H]1C` (stereo partly shown) [Compound 85], in experiment [1], the pIC50 is 10.00. Further, in experiment [2], the pEC50 is 7.75.
On to `C[C@@H]1c2nc(Nc3cc4c(C(C)(C)N)cnc(OC5CN(C(=O)C6COC6)C5)c4cn3)ccc2C(=O)OC1(C)C` [Compound 77], for which the negative logarithm of the IC50 (pIC50) in experiment [1] is 9.44. The pEC50 in experiment [2] was 7.32.
`COC[C@@](C)(N)c1cnc(OC2CN(C(=O)OC)C2)c2cnc(Nc3ccc4c(n3)[C@@H](C)C(C)(C)OC4=O)cc12` [Compound 125]: the pIC50 in experiment [1] is 9.77. The pEC50 in experiment [2] was 6.89.
On the same counts, the results for `C[C@@H]1OC(=O)c2ccc(Nc3cc4c(C(C)(C)N)cnc(O[C@H]5C[C@@H](C(=O)N(C)C)C5)c4cn3)nc2[C@H]1C` [Compound 33] are 9.82 and 8.04.
Consider `C[C@@H]1c2nc(Nc3cc4c(C(C)(C)N)cnc(OC5CN(C(=O)N6CCC6)C5)c4cn3)ccc2C(=O)OC1(C)C` [Compound 72], for which, in experiment [1], the pIC50 was 9.68. Moreover, the pEC50 in experiment [2] was 7.52.
The corresponding values for `CC(=O)N1C[C@@H](Oc2ncc(C(C)(C)N)c3cc(Nc4ccc5c(n4)[C@@H](C)C(C)(C)OC5=O)ncc23)[C@@H]1C` [Compound 7] are 9.92 and 7.65.
The corresponding values for `COC[C@@](C)(N)c1cnc(OC2CN(C(=O)C3CC3)C2)c2cnc(Nc3ccc4c(n3)[C@@H](C)[C@H](C)OC4=O)cc12` [Compound 80] are 9.77 and 7.20.

The record behind these values is patent US20240199648A1, “MAP4K1 INHIBITORS” (Blueprint Medicines Corporation, priority 2021, published 2024).
